Experimental findings from paper PMC8147781, “Discovery of Pyrrolidine-2,3-diones as Novel Inhibitors of P. aeruginosa PBP3” (Antibiotics, 2021) are described below.

One data set deals with E. coli Neumann. Nature of the data set: MIC broth microdilution, E. coli. The data set is classed as cell-based. The conditions noted are these: Escherichia coli; Table S3; read-out: MIC (µM) E. coli Neumann. How it is done:
(§1) MIC determination was performed via standard broth microdilution according to the Clinical & Laboratory Standards institute guidelines. Overnight colonies grown on BD-Columbia agar with 5% Sheep Blood (Becton Dickinson, Franklin Lakes, NJ, USA), were diluted in Mueller Hinton Broth 2 cation adjusted (MH+) medium (Thermo Fisher Scientific) to a concentration of 5 × 10^5 CFU/mL. Serial dilutions (1:2) of test compounds were incubated at 37 °C with 5 × 10^4 bacteria in a final volume of 100 μL. Sterile and growth controls in the presence of 1% DMSO and PMBN if the case, and the positive controls, aztreonam (AZT) and tigecycline (TIG) were included in the experiments (Table S4). The MICs were determined visually after 18 h at 37 °C and confirmed by the addition of 10% PrestoBlue (ThermoFisher Scientific) reagent according to the manufacture’s protocol. The fluorescence signal of PrestoBlue reagent was measured at Ex/Em: 550/595 nm after 30 min incubation at 37 °C using at a ClarioStar microplate reader (BMG Labtech). PrestoBlue reduction occurs in the presence of living cells and consequently turns red in colour and is highly fluorescent.
On the technique in general: Broth dilution looks for growth in wells or tubes with falling amounts of substance.

The subject of a further data set is A. baumannii ATCC15308. Nature of the data set: MIC broth microdilution, A. baumannii. The note with it: 10 µg/mL PMBN. The data set is classed as cell-based. The method, then: as §1
Data set [1] concerns NRK-52E, epithelial kidney cell line. Nature of the data set: Cytotoxicity assay (PrestoBlue), NRK52E. The conditions noted are these: CC50, 72 h. The method, then:
(§2) We finally tested the cytotoxicity of the compounds against four eukaryotic cell lines (Table 2 and Table S5), NRK-52E, an epithelial kidney cell line of Rattus norvegicus; Hep G2, an human epithelial liver cell line; and two suspension cell lines: CCRF-CEM, a T lymphoblast; and H9, a cutaneous T lymphocyte cell line.
(§3) Cell lines stored at −120 °C were thawed to 37 °C and resuspended in 10 mL of medium pre-warmed to 37 °C. Cells were pelleted at 300× g for 10 min, and then resuspended in fresh medium, seeded in a T-75 culture flask, and placed in a CO2 incubator (37 °C with 5% CO2 tension). Once the cells reached approximately 70–80% confluency, they were then passaged regularly. The adherent cell lines NRK52E, HepG2 and Huh 7 were washed once with 10 mL DPBS and detached with Trypsin-EDTA for 5 to 7 min and resuspended in 15 mL of the appropriate medium. The suspension cell line CCRF-CEM were diluted and resuspended in fresh RPMI 1640 PAN medium. To calculate the cell density, the cell resuspensions were diluted 1:6 with DPBS. Equal volumes of cell suspension and Trypan Blue were mixed and gently loaded into a haemocytometer (INCYTO, 31056 Republic of Korea). In each experiment, cell concentrations were adjusted to reach a concentration of 2.5 × 10^3 cell/well for NRK52E, 5 × 10^3 cell/well for HepG2, 6.2 × 10^4 cell/well for CCRF-CEM and 3 × 10^3 for H9. The cells were incubated with decreasing concentration of compounds (1 µL in 96% DMSO) for 72 h at 37 °C with 5% CO2 tension. Cycloheximide, a cytotoxic compound that interferes with the translocation step in eukaryotic protein synthesis was used as a control for the experiments. The assay was carried out in flat-bottom, transparent 96-well plates. Cell viability was determined using the PrestoBlue reagent (Thermo Fisher Scientific, Waltham, MA, USA) according to the manufacture’s protocol. First, 10× PrestoBlue was added to each well to obtain a 1× solution, and incubated at 37 °C for 45 min. Then, fluorescence was measured at Ex/Em: 550/595 nm using a ClarioStar microplate reader (BMG Labtech). Cytotoxicity was determined as the percentage of the difference in absorbance of the untreated sample to the treated sample. CC50 was calculated using the values obtained in each concentration using the sigmoidal dose-response by Prism v.8. The media used in each cell line is detailed in Table S6.

Data set [2] has as its system Hep G2, epithelial liver cell line. Nature of the data set: Cytotoxicity assay (PrestoBlue), HepG2. The conditions noted are these: CC50, 72 h. How it is done: as §2, §3
A further data set has as its system B. subtilis 168. Nature of the data set: MIC broth microdilution, B. subtilis. The format is cell-based. The conditions noted are these: Bacillus subtilis, 168; Table S3. How it is done: as §1
Data set [3] relates to T-lymphoblast CCRF-CEM cell line. Nature of the data set: Cytotoxicity assay (PrestoBlue), CCRF-CEM. The conditions noted are these: for Cytotoxicity CCRF-CEM: CC50, 72 h. The method, then: as §2, §3
The test system of another data set is S. pneumoniae. Nature of the data set: MIC broth microdilution, S. pneumoniae. The note with it: Streptococcus pneumoniae; Table S3; read-out: MIC (µM) S. pneumoniae. The data set is classed as cell-based. The method, then: as §1
The subject of another data set is S. aureus 133. Nature of the data set: MIC broth microdilution, S. aureus. The format is cell-based. The note with it: Staphylococcus aureus, 133; Table S3. How it is done:
as §1

Data set [4] has as its target T1, PBP3 of P. aeruginosa (PaPBP3) (Pseudomonas aeruginosa, UniProt G3XD46).
T1 construct: P. aeruginosa PBP3 (amino acids 40 to 563); His-tag; made in house; host or cells: E. coli BL21 (DE3) Rosetta, plasmid pET41_PBP-3
Nature of the data set: FP-Bocillin FL competition assay. The conditions noted are these: 30 min preincubation before Bocillin FL, 37 °C; read-out: IC50 Determination with PaPBP3, FP-Bocillin FL Assay. The format is binding. A digest of the protocol: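 Fluorescence polarisation competition assay: 200 nM PaPBP3 was incubated 30 min with 100 nM Bocillin FL, with or without compound, in Sorensen buffer at 37 °C. Polarisation (485/520 nm, mP) was monitored continuously for 30 min. IC50 was estimated by sigmoidal nonlinear regression.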

For data set [5], the system named is K. pneumoniae clinical isolate. Nature of the data set: MIC broth microdilution, K. pneumoniae. The data set is classed as cell-based. The conditions noted are these: Klebsiella pneumoniae; Table S3. The method, then: as §1
In data set [6] the test system is H9, cutaneous T lymphocyte cell line. Nature of the data set: Cytotoxicity assay (PrestoBlue), H9. The conditions noted are these: CC50, 72 h. The method, then:
as §2, §3

Structures are written as SMILES. Values after ≈ are worked out from the molar mass of the structure shown.

T1 sequence (G3XD46 40-563): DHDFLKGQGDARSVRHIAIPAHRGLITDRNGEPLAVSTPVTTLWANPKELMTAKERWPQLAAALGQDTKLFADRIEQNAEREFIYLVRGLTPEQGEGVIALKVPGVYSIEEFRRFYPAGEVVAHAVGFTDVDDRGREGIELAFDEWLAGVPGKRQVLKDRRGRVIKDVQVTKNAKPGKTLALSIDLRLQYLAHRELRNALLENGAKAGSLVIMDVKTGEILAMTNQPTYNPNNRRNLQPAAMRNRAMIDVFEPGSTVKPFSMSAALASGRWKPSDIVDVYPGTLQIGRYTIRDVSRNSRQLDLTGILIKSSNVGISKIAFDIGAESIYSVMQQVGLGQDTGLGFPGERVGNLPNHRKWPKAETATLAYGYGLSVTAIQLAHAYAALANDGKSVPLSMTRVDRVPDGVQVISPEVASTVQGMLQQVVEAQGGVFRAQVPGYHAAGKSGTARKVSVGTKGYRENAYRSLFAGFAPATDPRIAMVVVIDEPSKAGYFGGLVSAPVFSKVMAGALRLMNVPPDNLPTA

Take `O=C(C1=C(O)C(=O)N(CCc2c[nH]c3ccccc23)C1c1ccc(Cl)cc1)c1ccc(Br)cc1` (stereo not shown) [Compound 40]: the MIC in the data set on E. coli Neumann is more than 100 µM; against B. subtilis 168 it was more than 100 µM; in the data set with S. pneumoniae, 12.5 µM (≈ 6.7 µg/mL); against S. aureus 133, more than 100 µM; in data set [5] it was more than 100 µM. Further, in the data set on A. baumannii ATCC15308, the “MIC (µM) A. baumanii ATCC15308” value was more than 100 µM. Also, in [1], the “Cytotoxicity effect (µM) Epithelial kidney NRK52E” value is on record as more than 100 µM. In addition, in [2], the “Cytotoxicity effect (µM) Epithelial liver HepG2” value is reported as more than 100 µM. Also, the “Cytotoxicity CCRF-CEM” value in data set [3] came to 93 ± 4 µM. Further, the IC50 in data set [4] was found to be 4 ± 2 µM. The “Cytotoxicity effect (µM) T-lymphocyte H9” value in data set [6] is listed as more than 100 µM.
Take `O=C(C1=C(O)C(=O)N(Cc2ccco2)C1c1ccc(Cl)cc1)c1ccc(Br)cc1` (stereo not shown) [Compound 41, 4-(4-bromobenzoyl)-5-(4-chlorophenyl)-1-(furan-2-ylmethyl)-3-hydroxy-5H-pyrrol-2-one]: the MIC was more than 100 µM in the data set with E. coli Neumann; more than 100 µM against B. subtilis 168; 50 µM (≈ 23.6 µg/mL) in the data set on S. pneumoniae; more than 100 µM against S. aureus 133; more than 100 µM in data set [5]. The “MIC (µM) A. baumanii ATCC15308” value against A. baumannii ATCC15308 was more than 100 µM. Further, the “Cytotoxicity effect (µM) Epithelial kidney NRK52E” value in [1] was more than 100 µM. For the same compound, the “Cytotoxicity effect (µM) Epithelial liver HepG2” value in data set [2] is reported as more than 100 µM. Also, in [3], the “Cytotoxicity CCRF-CEM” value is more than 100 µM. In addition, the IC50 in data set [4] was more than 100 µM. Also, in data set [6], the “Cytotoxicity effect (µM) T-lymphocyte H9” value is reported as more than 100 µM.
On to `O=C(C1=C(O)C(=O)N(Cc2cscn2)C1c1ccc(Cl)cc1)c1ccc(Br)cc1` (stereo not shown) [Compound 42], for which the MIC (with E. coli Neumann; in the data set on B. subtilis 168; in the data set with S. pneumoniae; in the data set on S. aureus 133; in [5]) was more than 100 µM each time. For the same compound, in the data set with A. baumannii ATCC15308, the “MIC (µM) A. baumanii ATCC15308” value was more than 100 µM. The “Cytotoxicity effect (µM) Epithelial kidney NRK52E” value in data set [1] is more than 100 µM. Further, in data set [2], the “Cytotoxicity effect (µM) Epithelial liver HepG2” value is more than 100 µM. For the same compound, the “Cytotoxicity CCRF-CEM” value in data set [3] is on record as more than 100 µM. Further, the IC50 in [4] is more than 100 µM. Besides, the “Cytotoxicity effect (µM) T-lymphocyte H9” value in data set [6] was more than 100 µM.
For `O=C(C1=C(N2CCOCC2)C(=O)N(Cc2cccc(F)c2)C1c1ccc(Cl)cc1)c1ccc(Br)cc1` (stereo not shown) [Compound 44, 4-(4-bromobenzoyl)-5-(4-chlorophenyl)-1-[(3-fluorophenyl)methyl]-3-(morpholin-4-yl)-5H-pyrrol-2-one], the MIC (in the data set on E. coli Neumann; against B. subtilis 168; with S. pneumoniae; against S. aureus 133; in data set [5]) was more than 100 µM in each case. In the data set on A. baumannii ATCC15308, the “MIC (µM) A. baumanii ATCC15308” value is reported as more than 100 µM. In addition, in data set [1], the “Cytotoxicity effect (µM) Epithelial kidney NRK52E” value is given as 52 ± 3 µM. For the same compound, the “Cytotoxicity effect (µM) Epithelial liver HepG2” value in data set [2] is reported as more than 100 µM. In addition, the “Cytotoxicity CCRF-CEM” value in [3] was more than 100 µM. Further, the IC50 in data set [4] is more than 100 µM. Besides, in [6], the “Cytotoxicity effect (µM) T-lymphocyte H9” value was more than 100 µM.
Take `CCNC1=C(C(=O)c2ccc(Br)cc2)C(c2ccc(Cl)cc2)N(Cc2c[nH]c3ccccc23)C1=O` (stereo not shown) [Compound 45]: the minimal inhibitory concentration (MIC) in the data set with E. coli Neumann was more than 100 µM; against B. subtilis 168, more than 100 µM; in the data set on S. pneumoniae it was 25 µM (≈ 13.7 µg/mL); against S. aureus 133, 6.25 µM (≈ 3.43 µg/mL); in [5], more than 100 µM. In addition, the “MIC (µM) A. baumanii ATCC15308” value in the data set with A. baumannii ATCC15308 is more than 100 µM. Further, the “Cytotoxicity effect (µM) Epithelial kidney NRK52E” value in [1] was 23 ± 11 µM. For the same compound, in [2], the “Cytotoxicity effect (µM) Epithelial liver HepG2” value is 23 ± 8 µM. Also, the “cytotoxic potential at the tested cell lines” value in data set [3] (four cell lines: NRK-52E, Hep G2, CCRF-CEM, H9) is “high cytotoxic potential”. The IC50 in data set [4] was more than 100 µM. Besides, in data set [6], the “Cytotoxicity effect (µM) T-lymphocyte H9” value was 32 ± 10 µM.

The term MIC denotes the smallest concentration in the dilution series that meets the test's criterion for growth inhibition. As usually defined, the IC50 is the concentration needed to halve the response being measured.
